The test system of the data set is CCRIS mutagenicity, Ames/micronucleus/aberration tests. Description: CCRIS mutagenicity studies.
The mark [1] stands for this setting: Test System: AMES SALMONELLA TYPHIMURIUM, Strain/Indicator: TA98, Metabolic Activation: NONE, Method: STANDARD PLATE.
The mark [2] stands for this setting: Test System: AMES SALMONELLA TYPHIMURIUM, Strain/Indicator: TA100, Metabolic Activation: NONE, Method: STANDARD PLATE.

Calls of active or inactive are those of the source. No rule for the calls is given here.

On to `CCc1ccco1`, for which the mutagenic call (Test System: AMES SALMONELLA TYPHIMURIUM, Strain/Indicator: TA98, Metabolic Activation: HAMSTER, LIVER, S-9, AROCLOR 1254, Method: STANDARD PLATE) is “inactive; negative”; the mutagenic call under setting [1] was “inactive; negative”; the mutagenic call (Test System: AMES SALMONELLA TYPHIMURIUM, Strain/Indicator: TA98, Metabolic Activation: RAT, LIVER, S-9, AROCLOR 1254, Method: STANDARD PLATE) is “inactive; negative”; the mutagenic call (Test System: AMES SALMONELLA TYPHIMURIUM, Strain/Indicator: TA100, Metabolic Activation: HAMSTER, LIVER, S-9, AROCLOR 1254, Method: STANDARD PLATE) is “inactive; negative”; the mutagenic call under setting [2] was “inactive; negative”; the mutagenic call (Test System: AMES SALMONELLA TYPHIMURIUM, Strain/Indicator: TA100, Metabolic Activation: RAT, LIVER, S-9, AROCLOR 1254, Method: STANDARD PLATE) is “inactive; negative”. For the same compound, the mutagenic call (Test System: AMES SALMONELLA TYPHIMURIUM, Strain/Indicator: TA1535, Metabolic Activation: HAMSTER, LIVER, S-9, AROCLOR 1254, Method: STANDARD PLATE) was “inactive; negative”; the mutagenic call (Test System: AMES SALMONELLA TYPHIMURIUM, Strain/Indicator: TA1535, Metabolic Activation: NONE, Method: STANDARD PLATE) is “inactive; negative”; the mutagenic call (Test System: AMES SALMONELLA TYPHIMURIUM, Strain/Indicator: TA1535, Metabolic Activation: RAT, LIVER, S-9, AROCLOR 1254, Method: STANDARD PLATE) is “inactive; negative”; the mutagenic call (Test System: AMES SALMONELLA TYPHIMURIUM, Strain/Indicator: TA1537, Metabolic Activation: HAMSTER, LIVER, S-9, AROCLOR 1254, Method: STANDARD PLATE) was “inactive; negative”; the mutagenic call (Test System: AMES SALMONELLA TYPHIMURIUM, Strain/Indicator: TA1537, Metabolic Activation: NONE, Method: STANDARD PLATE) was “inactive; negative”; the mutagenic call (Test System: AMES SALMONELLA TYPHIMURIUM, Strain/Indicator: TA1537, Metabolic Activation: RAT, LIVER, S-9, AROCLOR 1254, Method: STANDARD PLATE) is “inactive; negative”. Also, the mutagenic call is, setting by setting: (Test System: AMES SALMONELLA TYPHIMURIUM, Strain/Indicator: TA1538, Metabolic Activation: HAMSTER, LIVER, S-9, AROCLOR 1254, Method: STANDARD PLATE) “inactive; negative”; (Test System: AMES SALMONELLA TYPHIMURIUM, Strain/Indicator: TA1538, Metabolic Activation: NONE, Method: STANDARD PLATE) “inactive; negative”; (Test System: AMES SALMONELLA TYPHIMURIUM, Strain/Indicator: TA1538, Metabolic Activation: RAT, LIVER, S-9, AROCLOR 1254, Method: STANDARD PLATE) “inactive; negative”; (Test System: MOUSE LYMPHOMA, Strain/Indicator: L5178Y (TK+/TK-), Metabolic Activation: NONE, Method: SUSPENSION/PLATE) “inactive; negative”; (Test System: MOUSE LYMPHOMA, Strain/Indicator: L5178Y (TK+/TK-), Metabolic Activation: RAT, LIVER, S-9, AROCLOR 1254, Method: SUSPENSION/PLATE) “active; positive”; (Test System: Mouse lymphoma, Strain/Indicator: L5178Y (tk+/tk-), Metabolic Activation: Rat, Liver, S-9, Aroclor 1254, Method: Suspension/plate) “active; equivocal (previous evaluation positive)”.

Turning to `CC(=O)O[C@@]1(C)C(=O)OC/C2=C/CN(C)CC[C@@H](OC(=O)[C@]3(C[C@H]1C)O[C@@H]3C)C2=O`, the mutagenic call (Test System: UDS RAT HEPATOCYTES, Strain/Indicator: THY INCORP, Metabolic Activation: NONE, Method: AUTORADIOGRAPHY) is “active; positive”.

Take `COc1cccc2c1C(=O)c1c(O)c3c(c(O)c1C2=O)C[C@@](O)(C(=O)CO)C[C@@H]3O[C@H]1C[C@H](N)[C@@H](O)[C@H](C)O1`: the mutagenic call was “inactive; negative” (Test System: AMES SALMONELLA TYPHIMURIUM, Strain/Indicator: TA97, Metabolic Activation: NONE, Method: STANDARD PLATE); “active; positive” under setting [1]; “inactive; negative” under setting [2]; “active; positive” (Test System: AMES SALMONELLA TYPHIMURIUM, Strain/Indicator: TA102, Metabolic Activation: NONE, Method: STANDARD PLATE); “inactive; negative” (Test System: AMES SALMONELLA TYPHIMURIUM, Strain/Indicator: TA104, Metabolic Activation: NONE, Method: STANDARD PLATE); “active; positive” (Test System: AMES SALMONELLA TYPHIMURIUM, Strain/Indicator: TA2637, Metabolic Activation: NONE, Method: STANDARD PLATE).

As for `O=C(ON(OCc1ccccc1)C(=O)c1ccccc1)c1cccc([N+](=O)[O-])c1`, the mutagenic call was “active; positive” under setting [2] and “active; positive” (Test System: AMES SALMONELLA TYPHIMURIUM, Strain/Indicator: TA100, Metabolic Activation: RAT, S-9, AROCLOR, Method: STANDARD PLATE).
